Measurements as given in EPA's CvTdb concentration-time database.

Tests used:
Assay in all cases: concentration in plasma after dosing
[1] = tested on: Rat; settings: dosed: Bromochloroacetic acid, 10 mg/kg, oral, Male, Harlan Sprague Dawley
[2] = tested on: Rat; settings: dosed: Bromochloroacetic acid, 10 mg/kg, oral, Male, Harlan Sprague Dawley; remark: listed apart in the source
[3] = tested on: Rat; settings: 20 min; dosed: Bromochloroacetic acid; 10 mg/kg; oral; Male; Harlan Sprague Dawley
[4] = tested on: Rat; settings: dosed: Bromochloroacetic acid, 40 mg/kg, oral, Female, Harlan Sprague Dawley
[5] = tested on: Rat; settings: dosed: Bromochloroacetic acid, 10 mg/kg, oral, Male, Harlan Sprague Dawley; remark: listed apart in the source
[6] = tested on: Rat; settings: dosed: Bromochloroacetic acid, 10 mg/kg, oral, Male, Harlan Sprague Dawley; remark: listed apart in the source
[7] = tested on: Rat; settings: 0.75 h; dosed: Bromochloroacetic acid; 40 mg/kg; oral; Female; Harlan Sprague Dawley
[8] = tested on: Rat; settings: 5 min; dosed: Bromochloroacetic acid; 40 mg/kg; oral; Female; Harlan Sprague Dawley
[9] = tested on: Rat; settings: dosed: Bromochloroacetic acid, 40 mg/kg, oral, Female, Harlan Sprague Dawley; remark: listed apart in the source
[10] = tested on: Rat; settings: dosed: Bromochloroacetic acid, 40 mg/kg, oral, Female, Harlan Sprague Dawley; remark: listed apart in the source
[11] = tested on: Rat; settings: 20 min; dosed: Bromochloroacetic acid; 10 mg/kg; oral; Male; Harlan Sprague Dawley; remark: listed apart in the source
[12] = tested on: Rat; settings: 0.75 h; dosed: Bromochloroacetic acid; 40 mg/kg; oral; Female; Harlan Sprague Dawley; remark: listed apart in the source
[13] = tested on: Rat; settings: dosed: Bromochloroacetic acid, 40 mg/kg, oral, Female, Harlan Sprague Dawley; remark: listed apart in the source
[14] = tested on: Rat; settings: 0.25 h; dosed: Bromochloroacetic acid; 10 mg/kg; oral; Male; Harlan Sprague Dawley
[15] = tested on: Rat; settings: 0.75 h; dosed: Bromochloroacetic acid; 40 mg/kg; oral; Female; Harlan Sprague Dawley; remark: listed apart in the source
[16] = tested on: Rat; settings: 0.75 h; dosed: Bromochloroacetic acid; 40 mg/kg; oral; Female; Harlan Sprague Dawley; remark: listed apart in the source
[17] = tested on: Rat; settings: dosed: Bromochloroacetic acid, 10 mg/kg, oral, Male, Harlan Sprague Dawley; remark: listed apart in the source
[18] = tested on: Rat; settings: dosed: Bromochloroacetic acid, 10 mg/kg, oral, Male, Harlan Sprague Dawley; remark: listed apart in the source
[19] = tested on: Rat; settings: dosed: Bromochloroacetic acid, 40 mg/kg, oral, Female, Harlan Sprague Dawley; remark: listed apart in the source
[20] = tested on: Rat; settings: 20 min; dosed: Bromochloroacetic acid; 10 mg/kg; oral; Male; Harlan Sprague Dawley; remark: listed apart in the source
[21] = tested on: Rat; settings: dosed: Bromochloroacetic acid, 10 mg/kg, oral, Male, Harlan Sprague Dawley; remark: listed apart in the source
[22] = tested on: Rat; settings: dosed: Bromochloroacetic acid, oral, Harlan Sprague Dawley
[23] = tested on: Rat; settings: dosed: Bromochloroacetic acid, 40 mg/kg, oral, Female, Harlan Sprague Dawley; remark: listed apart in the source
[24] = tested on: Rat; settings: dosed: Bromochloroacetic acid, 10 mg/kg, oral, Male, Harlan Sprague Dawley; remark: listed apart in the source
[25] = tested on: Rat; settings: dosed: Bromochloroacetic acid, 40 mg/kg, oral, Female, Harlan Sprague Dawley; remark: listed apart in the source
[26] = tested on: Rat; settings: dosed: Bromochloroacetic acid, 10 mg/kg, oral, Male, Harlan Sprague Dawley; remark: listed apart in the source
[27] = tested on: Rat; settings: 20 min; dosed: Bromochloroacetic acid; 10 mg/kg; oral; Male; Harlan Sprague Dawley; remark: listed apart in the source
[28] = tested on: Rat; settings: dosed: Bromochloroacetic acid, 40 mg/kg, oral, Female, Harlan Sprague Dawley; remark: listed apart in the source
[29] = tested on: Rat; settings: dosed: Bromochloroacetic acid, 40 mg/kg, oral, Female, Harlan Sprague Dawley; remark: listed apart in the source
[30] = tested on: Rat; settings: dosed: Bromochloroacetic acid, 10 mg/kg, oral, Male, Harlan Sprague Dawley; remark: listed apart in the source
[31] = tested on: Rat; settings: dosed: Bromochloroacetic acid, 10 mg/kg, oral, Male, Harlan Sprague Dawley; remark: listed apart in the source
[32] = tested on: Rat; settings: 20 min; dosed: Bromochloroacetic acid; 10 mg/kg; oral; Male; Harlan Sprague Dawley; remark: listed apart in the source
[33] = tested on: Rat; settings: dosed: Bromochloroacetic acid, 40 mg/kg, oral, Female, Harlan Sprague Dawley; remark: listed apart in the source
[34] = tested on: Rat; settings: dosed: Bromochloroacetic acid, 10 mg/kg, oral, Male, Harlan Sprague Dawley; remark: listed apart in the source
[35] = tested on: Rat; settings: dosed: Bromochloroacetic acid, 10 mg/kg, oral, Male, Harlan Sprague Dawley; remark: listed apart in the source
[36] = tested on: Rat; settings: dosed: Bromochloroacetic acid, 10 mg/kg, oral, Male, Harlan Sprague Dawley; remark: listed apart in the source
[37] = tested on: Rat; settings: dosed: Bromochloroacetic acid, 40 mg/kg, oral, Female, Harlan Sprague Dawley; remark: listed apart in the source
[38] = tested on: Rat; settings: dosed: Bromochloroacetic acid, 10 mg/kg, oral, Male, Harlan Sprague Dawley; remark: listed apart in the source
[39] = tested on: Rat; settings: dosed: Bromochloroacetic acid, 10 mg/kg, oral, Male, Harlan Sprague Dawley; remark: listed apart in the source
[40] = tested on: Rat; settings: 0.75 h; dosed: Bromochloroacetic acid; 40 mg/kg; oral; Female; Harlan Sprague Dawley; remark: listed apart in the source
[41] = tested on: Rat; settings: dosed: Bromochloroacetic acid, 40 mg/kg, oral, Female, Harlan Sprague Dawley; remark: listed apart in the source
[42] = tested on: Rat; settings: dosed: Bromochloroacetic acid, 10 mg/kg, oral, Male, Harlan Sprague Dawley; remark: listed apart in the source
[43] = tested on: Rat; settings: dosed: Bromochloroacetic acid, 40 mg/kg, oral, Female, Harlan Sprague Dawley; remark: listed apart in the source
[44] = tested on: Rat; settings: 0.25 h; dosed: Bromochloroacetic acid; 10 mg/kg; oral; Male; Harlan Sprague Dawley; remark: listed apart in the source
[45] = tested on: Rat; settings: dosed: Bromochloroacetic acid, 40 mg/kg, oral, Female, Harlan Sprague Dawley; remark: listed apart in the source
[46] = tested on: Rat; settings: dosed: Bromochloroacetic acid, 40 mg/kg, oral, Female, Harlan Sprague Dawley; remark: listed apart in the source
[47] = tested on: Rat; settings: dosed: Bromochloroacetic acid, 40 mg/kg, oral, Female, Harlan Sprague Dawley; remark: listed apart in the source
[48] = tested on: Rat; settings: dosed: Bromochloroacetic acid, 10 mg/kg, oral, Male, Harlan Sprague Dawley; remark: listed apart in the source

O=C(O)C(Cl)Br (stereo not given) [Bromochloroacetic acid]
Settings	concentration in plasma [ng/mL]
[1], 1.5 h	122
[1], 10 min	475
[2], 0.75 h	218
[2], 2 min	104
[4], 2 h	4710
[4], 10 min	2240
[5], 0.75 h	225
[5], 2 min	104
[6], 0.25 h	643
[6], 2 h	120
[9], 1.5 h	6540
[9], 5 min	2780
[10], 0.25 h	3060
[10], 3 h	1880
[13], 4 h	1060
[13], 6 h	172
[17], 1.5 h	107
[17], 10 min	494
[18], 1 h	164
[18], 5 min	255
[19], 2 h	3920
[19], 10 min	2220
[21], 1.5 h	238
[21], 10 min	516
[23], 1 h	5710
[23], 2 min	984
[24], 1 h	224
[24], 5 min	362
[25], 4 h	2010
[25], 20 min	3310
[26], 1 h	201
[26], 5 min	210
[28], 1 h	7660
[28], 2 min	536
[29], 1 h	9330
[29], 2 min	564
[30], 1 h	196
[30], 5 min	423
[31], 0.75 h	283
[31], 2 min	71.7
[33], 1 h	8650
[33], 2 min	484
[34], 1.5 h	155
[34], 10 min	322
[35], 0.75 h	284
[35], 2 min	80.1
[36], 0.75 h	485
[36], 2 min	216
[37], 1.5 h	5290
[37], 5 min	1440
[38], 1 h	299
[38], 5 min	383
[39], 0.25 h	727
[39], 2 h	136
[41], 6 h	201
[41], 20 min	5740
[42], 0.25 h	545
[42], 3 h	88.7
[43], 0.25 h	5810
[43], 3 h	2170
[45], 1 h	7500
[45], 2 min	396
[46], 1.5 h	4490
[46], 5 min	2540
[47], 1.5 h	7410
[47], 5 min	4130
[48], 1.5 h	96.2
[48], 10 min	241

Settings	concentration in plasma [ng/mL]
[3]	544
[7]	10700
[8]	2990
[11]	663
[12]	9710
[14]	476
[15]	6170
[16]	10300
[20]	733
[27]	521
[32]	508
[40]	11800
[44]	576

[22]
Settings	concentration in plasma [ng/mL]
0.25 h, 10 mg/kg, Male	543
0.25 h, 40 mg/kg, Female	5910
0.75 h, 10 mg/kg, Male	177
0.75 h, 40 mg/kg, Female	7630
1 h, 10 mg/kg, Male	187
1 h, 40 mg/kg, Female	6900
1.5 h, 10 mg/kg, Male	166
1.5 h, 40 mg/kg, Female	4860
2 h, 10 mg/kg, Male	95.5
2 h, 40 mg/kg, Female	2940
2 min, 10 mg/kg, Male	83.2
3 h, 40 mg/kg, Female	1990
4 h, 40 mg/kg, Female	3160
5 min, 10 mg/kg, Male	214
5 min, 40 mg/kg, Female	1770
10 min, 10 mg/kg, Male	168
10 min, 40 mg/kg, Female	3420
20 min, 10 mg/kg, Male	364
20 min, 40 mg/kg, Female	4390
